Legend:
[1] = tested on: A375; assay: Cellular growth assay (MTS), 72 h; format: cell-based, human; conditions: A375, 72 hr treatment, read-out: Growth Inhibition IC50
Procedure: (§1) Cells were seeded in 96-well plates (2×10^4) in triplicate and allowed to adhere overnight. Fresh media containing KPT-185, KPT-185-trans, KPT-276, or KPT-330 was added to each well at various concentrations (range = 40–10240 nM) and cells were incubated at 37°C/5% CO2 for 72 hours. Cells treated with DMSO (diluent) and untreated cells served as controls. At this time, the percentage of cell growth was evaluated using the MTS assay (CellTiter 96 AQueous Non-Radioactive Cell Proliferation Assay, Promega) and quantified by determining the optical density at 595 nm using a Bio-Rad iMark™ microplate reader. The 4-parameter logistic or Hill model was the assumed dose-response relationship for the in vitro inhibition and cell viability experiments. Nonlinear least squares regression was used to estimate the model parameters and generate 95% confidence intervals for the IC50 estimates. For in vivo experiments, tumor volumes were first log-transformed to meet test assumptions of normality and homoscedasticity. Changes in tumor volumes were analyzed using a two-sample t-test to evaluate the difference from first day of treatment to the last for A375 xenografts (day 17), and from day 1 to day 10 for CHL-1 xenografts as day 10 marks the first mouse sacrificed when 1500 mm^3 tumor volume was reached. ANOVA was used to compare the expression of XPO1 staining among samples from the melanoma tissue core array. The Wilcoxon rank-sum test was used to analyze data comparing growth inhibition and apoptosis of the five metastatic melanoma cell lines to the three melanocyte cell lines.

[2] = tested on: CHL-1; assay: Cellular growth assay (MTS), 72 h; format: cell-based, human; conditions: Homo sapiens, CHL-1, 72 hr treatment, read-out: Growth Inhibition IC50
Procedure: as §1

[3] = tested on: FO-1; assay: Cellular growth assay (MTS), 72 h; format: cell-based, human; conditions: FO-1, 72 hr treatment, read-out: Growth Inhibition IC50
Procedure: as §1

[4] = tested on: HEMn-DP; assay: Cellular growth assay (MTS), 72 h; format: cell-based, human; conditions: HEMn-DP primary melanocytes, highest concentration 10240 nM
Procedure: as §1

[5] = tested on: HEMn-MP; assay: Cellular growth assay (MTS), 72 h; format: cell-based, human; conditions: HEMn-MP primary melanocytes, highest concentration 10240 nM
Procedure: as §1

[6] = tested on: HEM-l; assay: Cellular growth assay (MTS), 72 h; format: cell-based; conditions: Homo sapiens, Melanocyte, HEM-l primary melanocytes, 72 hr treatment, read-out: Growth Inhibition IC50
Procedure: as §1

[7] = tested on: Hs294T; assay: Cellular growth assay (MTS), 72 h; format: cell-based; conditions: Homo sapiens, Hs 294T, 72 hr treatment, read-out: Growth Inhibition IC50
Procedure: as §1

[8] = tested on: Wm1366; assay: Cellular growth assay (MTS), 72 h; format: cell-based; conditions: Homo sapiens, Wm1366, 72 hr treatment, read-out: Growth Inhibition IC50
Procedure: as §1

[9] = tested on: A375; assay: Apoptosis via Annexin V/PI staining, flow cytometry; format: cell-based; conditions: Homo sapiens, A-375, A375, 72 hr treatment
Procedure: (§2) Phosphatidyl serine exposure was assessed in tumor cells and melanocytes by flow cytometry using APC-Annexin V and propidium iodide (PI; BD Pharmingen, San Diego, CA) as previously described. Each analysis was performed utilizing at least 10,000 events. We considered the Annexin V positive cells (early apoptosis) and Annexin V/PI double positive cells (late apoptosis) cells as the apoptotic cell population. The 4-parameter logistic or Hill model was the assumed dose-response relationship for the in vitro inhibition and cell viability experiments. Nonlinear least squares regression was used to estimate the model parameters and generate 95% confidence intervals for the IC50 estimates. For in vivo experiments, tumor volumes were first log-transformed to meet test assumptions of normality and homoscedasticity. Changes in tumor volumes were analyzed using a two-sample t-test to evaluate the difference from first day of treatment to the last for A375 xenografts (day 17), and from day 1 to day 10 for CHL-1 xenografts as day 10 marks the first mouse sacrificed when 1500 mm^3 tumor volume was reached. ANOVA was used to compare the expression of XPO1 staining among samples from the melanoma tissue core array. The Wilcoxon rank-sum test was used to analyze data comparing growth inhibition and apoptosis of the five metastatic melanoma cell lines to the three melanocyte cell lines.

[10] = tested on: CHL-1; assay: as above; format: cell-based; conditions: Homo sapiens, CHL-1, 72 hr treatment
Procedure: as §2

[11] = tested on: FO-1; assay: as above; format: cell-based; conditions: Homo sapiens, FO-1, 72 hr treatment
Procedure: as §2

[12] = tested on: HEM-l; assay: as above; format: cell-based; conditions: Homo sapiens, Melanocyte, HEM-l primary melanocytes, 72 hr treatment
Procedure: as §2

[13] = tested on: Hs294T; assay: as above; format: cell-based; conditions: Homo sapiens, Hs 294T, 72 hr treatment
Procedure: as §2

[14] = tested on: Wm1366; assay: as above; format: cell-based; conditions: Homo sapiens, Wm1366, 72 hr treatment
Procedure: as §2

[15] = tested on: HEMn-DP; assay: as above; format: cell-based, human; conditions: HEMn-DP primary melanocytes, 72 hr, range 0–10.24 µM
Procedure: as §2

[16] = tested on: HEMn-MP; assay: as above; format: cell-based, human; conditions: HEMn-MP primary melanocytes, 72 hr, range 0–10.24 µM
Procedure: as §2

[17] = tested on: A375; assay: Cell cycle assay (PI, flow cytometry); format: cell-based, human; conditions: A375, 1 µM, 24 h or 48 hr, PI staining
Procedure: (§3) Cell-cycle analysis was conducted using propidium iodide (PI) following the manufacturer's protocol (BD Pharmigen). Cells were plated in 6-well plates and treated for 24 h or 48 hr with 1 µM of KPT-185. A total of 1×10^5 cells per analysis were examined by flow cytometry (FACSCalibur), and analyzed using ModFit LT 3.3.

[18] = tested on: CHL-1; assay: Cell cycle assay (PI, flow cytometry); format: cell-based, human; conditions: CHL-1, 1 µM, 24 h or 48 hr, PI staining
Procedure: as §3

[19] = tested on: A375; assay: Subcellular fractionation and immunoblot analysis; format: cell-based, human
Procedure: (§4) Human melanoma cell lines were seeded in 6-well plates (2×10^5) and allowed to adhere overnight. After treatment for various time points, the cells were harvested then fractionated using NE-PER Nuclear and Cytoplasmic Extraction Reagents from Thermo Scientific following the manufacturer's protocol. Nuclear and cytoplasmic fractions were validated via immunoblot analysis using Lamin B and GAPDH antibodies. Immunoblots were prepared as previously described and probed with antibodies specific for TP53, CDKN1A (p21), XPO1, HDM2 (MDM2), Lamin B (Santa Cruz Biotechnology, Santa Cruz, CA), pMAPK, PARP (Cell Signaling Technology), GAPDH or β-actin (Sigma). Following incubation with the appropriate horseradish peroxidase-conjugated secondary antibody, immune complexes were detected using the ECL Plus detection kit (Amersham Biosciences, Ayesbury, UK).

[20] = tested on: CHL-1; assay: Subcellular fractionation and immunoblot analysis; format: cell-based, human
Procedure: as §4

[21] = tested on: melanoma cell lines; assay: Immunoblot analysis of PARP cleavage; format: cell-based, human; conditions: KPT-185 at the IC50 for apoptosis for each cell line
Procedure: Immunoblots were prepared as previously described and probed with antibodies specific for TP53, CDKN1A (p21), XPO1, HDM2 (MDM2), Lamin B (Santa Cruz Biotechnology, Santa Cruz, CA), pMAPK, PARP (Cell Signaling Technology), GAPDH or β-actin (Sigma). Following incubation with the appropriate horseradish peroxidase-conjugated secondary antibody, immune complexes were detected using the ECL Plus detection kit (Amersham Biosciences, Ayesbury, UK).

[22] = Homo sapiens, Melanocyte, read-out: Growth Inhibition IC50

`COc1cc(-c2ncn(/C=C\C(=O)OC(C)C)n2)cc(C(F)(F)F)c1` [KPT-185] showed an IC50 [1] of 45.9 nM, an IC50 ([1]; Homo sapiens, A-375, 72 h) of roughly 50 nM and an IC50 [2] of 592 nM. For the same compound, the IC50 [3] was 32.1 nM, the IC50 ([3]; Homo sapiens, 72 h) was roughly 50 nM and the “Growth Inhibition IC50” value [4] was “Not achieved”. The IC50 [4, 22] was greater than 10200 nM, the “Growth Inhibition IC50” value [5] was “Not achieved” and the IC50 [5, 22] was greater than 10200 nM. For the same compound, the IC50 [6] was 4130 nM, the IC50 [7] was 48.9 nM and the IC50 [8] was 347 nM. For the same compound, the IC50 [9] was 147 nM, the IC50 [10] was 2410 nM and the IC50 [11] was 297 nM. The IC50 [12] was 3170 nM, the IC50 [13] was 212 nM and the IC50 [14] was 661 nM. The “Apoptosis IC50” value [15] was “not achievable”, the “Apoptosis IC50” value ([15]; listed as KPT185) was “Not achieved” and the “Apoptosis IC50” value [16] was “not achievable”. The “Apoptosis IC50” value ([16]; listed as KPT185) was “Not achieved”, the Cell cycle effect [17] was “arrested in the G1 phase” and the Cell cycle effect [18] was “arrested in the G1 phase”. The “Expression of TP53 protein” value ([19]; A375 (TP53 WT), 500 nM, nuclear localization at 16 hour) was “upregulated”, the CDKN1A expression ([19]; A375, 500 nM) was “upregulation” and the “HDM2 expression in cytoplasmic and nuclear compartment” value ([19]; A375, KPT-185 at IC50, 16 hr, no detectable protein at basal level) was “robust expression of HDM2”. The “Nuclear accumulation of phosphorylated MAPK” value ([19]; A375, nuclear fraction, immunoblot) was “accumulated in the nuclear compartment”, the “TP53 or CDKN1A induction” value ([20]; CHL-1 (mutated TP53), 500 nM) was “only limited TP53 or CDKN1A induction” and the “Nuclear accumulation of phosphorylated MAPK” value ([20]; CHL-1, nuclear fraction, immunoblot) was “accumulated in the nuclear compartment”. For the same compound, the PARP cleavage [21] was “cleavage of PARP”.
